In test [1] the target is VR1 nociceptor (Rattus norvegicus, UniProt O35433). The experiment in a line: Blocking of capsaicin-activated ionic current in X. laevis ovocites expressing the VR1 nociceptor (two-microelectrode voltage clamp). The format is cell-based. As to conditions: activated by capsaicin 20 μM, -80 mV, read-out: concentration that inhibited half the VR1 nociceptor response (IC50).
From the text: This test comprises the contacting of X. laevis ovocites that express the VR1 nociceptor or glutamatergic receptors with an agonist (ligand) for said VR1 nociceptor, for example, capsaicin or L-glutamate, in the presence or absence of the compound to be tested, maintaining the transmembrane voltage constant at −80 mV, and to detect the inhibiting activity of said compound to be tested by measuring the ionic current activated by the agonist in the presence and absence of the compound to be tested. The power and efficiency of the inhibiting activity of the compound to be tested can be determined by obtaining the dose-response curves. For this, the magnitude of the ionic current blockage activated by the X. laevis ovocite agonist that express the receptors in the presence of growing concentrations of the compound to be tested, is examined. The ionic current intensities ratio, in the presence and absence of the compound to be tested, allows to obtain the dose-response curves (19, 20). These graphs meet logarithmic functions to determine the maximum blockage (power) and the antagonist concentration that is produced by half the maximum blockage (IC50 efficiency).
Briefly, the X. laevis ovocites of adult frogs are gathered, manipulated, and injected with cDNA that codes the VR1 nociceptor (5, 19). The ionic currents activated by the capsaicin agonist are recorded with the maintenance of the constant voltage technique with two microelectrodes (two-microelectrode voltage clamp) (19, 20). The ovocites that express the VR1 nociceptor are transferred to the recording chamber and perfunded using an 8-output perfusion system. […] The inhibiting activity is detected by measuring the ionic current activated by the agonist in the presence and absence of the N-alkylglycine trimeres.
The power and efficiency of the inhibitory activity of N-alkylglycine trimeres is determined by obtaining the dose-response curves. […]
The subject of test [2] is irritation produced by topical capsaicin in the eye. The experiment in a line: Ocular pain model: scratches after topical capsaicin in the eye of a mouse. The format is in vivo. As to conditions: scratches during 1 minute, second capsaicin application with compound vs first without. The method, then: An investigation was performed on the attenuation of the N-alkylglycine trimeres indicated in Table 1, on the irritation produced by the topical application of capsaicin in the eyes of animals, an ocular pain model (22). The experimental paradigm compares the number of scratches after the topical administration of capsaicin at 0,01% in the eye of a mouse, in the absence and presence of the N-alkylglycine trimeres. After the administration of capsaicin, the number of times the mouse scratches its treated eye during 1 minute is counted. Subsequently, the affected eye is extensively rinsed with saline solution and 15 minutes after application, the compound to be tested is administered. After 5 minutes incubation, a 0,1% capsaicin solution containing the compound to be tested is administered. The number of times the animal scratches its eye during 1 minute is immediately counted. The analgesic capacity is obtained by comparing the number of scratches in the first application of capsaicin (without the compound to be tested) and the second application of the irritant (in the presence of the compound to be tested). A decrease of scratches in the second application of capsaicin is indicative of an analgesic activity of the N-alkylglycine trimere tested.

Test [3] deals with NMDA receptor (NR1 and NR2A subunities) (Homo sapiens, UniProt Q05586+Q12879). As to the kind of experiment: Blocking of L-glutamate/glycine-activated ionic current in X. laevis ovocites expressing the NMDA receptor (two-microelectrode voltage clamp). The format is cell-based. As to conditions: activated by L-glutamate/glycine 100 μM/20 μM, -80 mV, read-out: concentration that inhibited half the NMDA receptor response (IC50). From the text:
In order to evaluate the biological activity of the N-alkylglycine trimeres obtained in Example 1.1 on type NMDA glutamatergic receptors, a test was developed that evaluated the efficiency and power of said compounds blocking the ionic current activated by X. laevis ovocite agonist that express the type NMDA receptor, the […].
The heterologeous expression of receptors in X. laevis ovocites may be carried out according to the procedure described by Ferrer-Montiel and Montal (19). Briefly, the X. laevis ovocites of adult frogs are gathered, manipulated and injected with cRNA that codes the NR1 and NR2A subunities of the NMDA receptor (5, 20). The ionic currents activated by L-glutamate agonist in the presence of the glycine coagonist are recorded with the constant voltage maintenance technique with two microelectrodes (two-microelectrode voltage clamp) (19, 20). The ovocites that express the receptor are transferred to the recording chamber and perfunded using an 8-output perfusion system. The agonist and the coagonist, both in the absence and in the presence of the N-alkylglcycine trimeres to be tested, are dissolved in a Ringer buffer (Hepes 10 mM pH 7,4 NaCl 100 mM, Ba Cl2, 2,0 mM, KCl 3,0 mM) supplemented with 100 μM fluphenamic acid (20). This buffered solution is used to minimize the contribution of the chloride endogenous ionic channel activated by calcium to the glutamatergic receptor ionic current (19, 20). The transmembrane voltage is kept constant at −80 mV and the ionic currents are activated by applying pulses of the L-glutamate/glycine solution (100 μM /20 μM) in the presence or absence of growing concentrations of the N-alkylglycine trimeres to be tested. The inhibiting activity is detected by measuring the ionic current activated by the agonist in the presence and absence of the N-alkylglycine trimeres.
The power and efficiency of the N-alkylglycine trimeres inhibiting activity is determined by obtaining the dose-response curves. […]

Chain of VR1 nociceptor (O35433 whole entry): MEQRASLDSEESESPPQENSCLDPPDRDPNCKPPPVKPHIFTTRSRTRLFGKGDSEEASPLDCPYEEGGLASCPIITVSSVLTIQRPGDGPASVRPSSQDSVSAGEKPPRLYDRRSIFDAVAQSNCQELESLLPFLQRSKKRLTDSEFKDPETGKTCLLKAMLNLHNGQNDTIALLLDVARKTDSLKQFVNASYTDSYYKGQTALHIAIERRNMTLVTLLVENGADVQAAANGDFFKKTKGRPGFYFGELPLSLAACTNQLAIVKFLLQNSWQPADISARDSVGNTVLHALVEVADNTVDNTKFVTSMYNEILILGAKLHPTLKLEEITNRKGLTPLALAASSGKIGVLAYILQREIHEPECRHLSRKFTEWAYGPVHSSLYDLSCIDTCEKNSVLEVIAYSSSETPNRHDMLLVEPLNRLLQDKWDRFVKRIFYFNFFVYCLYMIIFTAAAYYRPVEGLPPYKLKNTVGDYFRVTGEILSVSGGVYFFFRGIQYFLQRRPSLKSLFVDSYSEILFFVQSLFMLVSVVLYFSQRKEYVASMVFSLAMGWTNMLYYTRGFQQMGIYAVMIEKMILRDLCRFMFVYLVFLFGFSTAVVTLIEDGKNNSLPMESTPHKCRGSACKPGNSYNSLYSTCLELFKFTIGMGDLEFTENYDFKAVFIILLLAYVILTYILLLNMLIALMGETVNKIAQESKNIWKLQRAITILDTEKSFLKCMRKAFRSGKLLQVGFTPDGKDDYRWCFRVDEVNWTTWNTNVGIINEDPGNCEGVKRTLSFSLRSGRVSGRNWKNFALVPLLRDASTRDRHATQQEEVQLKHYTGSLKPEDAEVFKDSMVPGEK
Chain of NMDA receptor (NR1 and NR2A subunities) (Q12879 23-1464, other chains not shown): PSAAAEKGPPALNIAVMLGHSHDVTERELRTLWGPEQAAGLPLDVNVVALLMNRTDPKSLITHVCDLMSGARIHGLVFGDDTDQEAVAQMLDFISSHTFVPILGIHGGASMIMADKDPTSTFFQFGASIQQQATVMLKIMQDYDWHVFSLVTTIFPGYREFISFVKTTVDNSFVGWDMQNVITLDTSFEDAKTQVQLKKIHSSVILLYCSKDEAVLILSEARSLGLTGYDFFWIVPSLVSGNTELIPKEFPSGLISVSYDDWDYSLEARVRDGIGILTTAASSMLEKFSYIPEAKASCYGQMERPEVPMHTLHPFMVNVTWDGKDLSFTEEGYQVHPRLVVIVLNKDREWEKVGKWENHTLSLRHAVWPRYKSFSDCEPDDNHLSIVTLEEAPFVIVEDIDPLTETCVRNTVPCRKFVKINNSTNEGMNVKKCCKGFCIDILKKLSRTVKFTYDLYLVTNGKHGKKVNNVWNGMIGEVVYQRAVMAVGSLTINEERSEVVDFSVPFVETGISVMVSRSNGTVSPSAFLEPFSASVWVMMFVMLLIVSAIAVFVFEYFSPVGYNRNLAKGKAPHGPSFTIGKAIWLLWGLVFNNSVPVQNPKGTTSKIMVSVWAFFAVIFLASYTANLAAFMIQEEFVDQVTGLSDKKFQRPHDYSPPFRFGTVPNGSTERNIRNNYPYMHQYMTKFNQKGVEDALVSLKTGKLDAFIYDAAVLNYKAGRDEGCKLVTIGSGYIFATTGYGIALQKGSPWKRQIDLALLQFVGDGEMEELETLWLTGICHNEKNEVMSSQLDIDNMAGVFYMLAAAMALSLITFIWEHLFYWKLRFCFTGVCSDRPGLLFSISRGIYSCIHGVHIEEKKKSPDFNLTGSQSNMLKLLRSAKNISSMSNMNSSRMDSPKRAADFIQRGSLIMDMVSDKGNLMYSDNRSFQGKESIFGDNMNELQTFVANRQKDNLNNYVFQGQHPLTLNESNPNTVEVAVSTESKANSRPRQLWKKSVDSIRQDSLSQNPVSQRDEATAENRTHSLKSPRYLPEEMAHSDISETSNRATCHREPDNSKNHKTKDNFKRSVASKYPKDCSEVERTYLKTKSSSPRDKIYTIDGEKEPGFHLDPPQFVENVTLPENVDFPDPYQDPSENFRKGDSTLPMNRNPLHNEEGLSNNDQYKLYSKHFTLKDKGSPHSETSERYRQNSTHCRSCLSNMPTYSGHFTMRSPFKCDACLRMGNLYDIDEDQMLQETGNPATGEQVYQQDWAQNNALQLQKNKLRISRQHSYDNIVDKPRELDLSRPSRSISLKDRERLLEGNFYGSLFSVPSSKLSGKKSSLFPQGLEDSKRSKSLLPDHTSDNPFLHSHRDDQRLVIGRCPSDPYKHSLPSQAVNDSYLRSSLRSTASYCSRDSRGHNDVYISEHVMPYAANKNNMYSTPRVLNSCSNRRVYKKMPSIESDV

For the molecule `CN1CCCC1CCNCC(=O)N(CCc1ccc(Cl)cc1Cl)CC(=O)N(CCc1ccc(Cl)cc1Cl)CC(N)=O` (racemic) [compound [4], [N-[(R,S)-2-[2-(N-methyl)pyrrolidinyl]ethyl]glycyl]-[N-(2,4-dichlorophenethyl)glycyl]-N-(2,4-dichlorophenethyl)glycinamide], the IC50 in test [1] was roughly 1 µM. The “attenuation of the ocular irritation produced by capsaicin” value in test [2] was “approximately 40%”.

For the molecule `CCN(CC)CCCNCC(=O)N(CCc1ccc(Cl)cc1Cl)CC(=O)N(CCC(C)C)CC(N)=O` [compound [7], [N-[3-(N,N-diethylamine)propyl]glycyl]-[N-(2,4-dichlorophenethyl)glycyl]-N-(3-methylbutyl)glycinamide], the IC50 in test [1] is roughly 30 µM.

For `CCN(CC)CCCNCC(=O)N(CCc1ccc(Cl)cc1Cl)CC(=O)N(CCc1ccc(Cl)cc1Cl)CC(N)=O` [compound [8], [N-[3-(N,N-diethylamine)propyl]glycyl]-[N-(2,4-dichlorophenethyl)glycyl]-N-(2,4-dichlorophenethyl)glycinamide], in test [1], the IC50 is roughly 2 µM. For the same molecule, the “attenuation of the ocular irritation produced by capsaicin” value in test [2] is listed as “approximately 20%”.

Consider `CCN(CC)CCCN(CC(=O)N(CCc1ccc(Cl)cc1Cl)CC(N)=O)C(=O)CNCCC(c1ccccc1)c1ccccc1` [compound [9]], for which the IC50 in test [3] is 1 µM.

Take `CCN(CC)CCCN(CC(=O)N(CCc1ccccn1)CC(N)=O)C(=O)CNCCC(c1ccccc1)c1ccccc1` [compound [10]]: the IC50 in test [3] was roughly 2 µM.

As to `CCN(CC)CCCN(CC(=O)N(CCn1ccnc1)CC(N)=O)C(=O)CNCCC(c1ccccc1)c1ccccc1` [compound [11]], in test [3], the IC50 is roughly 10 µM.

Source of the values: patent US20040033958A1, “N-alkylglycine trimeres capable of blocking the response to chemical substances, heat stimuli or mediators of neuronal receptor inflammation and compositions containing said trimeres” (priority 2000, published 2004).
